The source of these data is article PMC11550483 (2024).

Structures are written as SMILES.

In the assay the target is SARS2 M^pro (Severe acute respiratory syndrome coronavirus 2, UniProt P0DTD1, P3395H). The assay is classed as biochemical, SARS-CoV-2.
For the compound `CC(=O)C1=C(O)C(=O)N(c2ccc(Br)cn2)C1c1ccc(Cl)cc1` (stereo not drawn) [MWAC-0001809, CC(=O)C1=C(O)C(=O)N(C1c2ccc(Cl)cc2)c3ccc(Br)cn3], the “% inhibition (20 µM) biochemical” value was found to be 16%.

`Cc1cccc(OCCNC(=O)C(C)Cl)c1` (stereo not drawn): the “M^pro inhibition activity (in words)” value is recorded as “lost all activity”.

On to `COc1ccc(C2=NN3C(C2)c2ccccc2OC3c2ccc(C(C)(C)C)cc2)cc1` (stereo not drawn) [MWAC-0001719, COc1ccc(cc1)C2=NN3C(C2)c4ccccc4OC3c5ccc(cc5)C(C)(C)C], for which the “% inhibition (20 µM) biochemical” value turned out to be 5%.

For `Cc1cc(Br)cc2c1N(C)C(=O)C2(O)CC(=O)c1ccc(Cl)cc1` (stereo not drawn) [MWAC-0001785, CN1C(=O)C(O)(CC(=O)c2ccc(Cl)cc2)c3cc(Br)cc(C)c13], the “% inhibition (20 µM) biochemical” value was found to be 4.25%.

With `Cc1ccc(OCCN2C(=O)C(=O)c3ccccc32)cc1` [MWAC-0001827, Cc1ccc(OCCN2C(=O)C(=O)c3ccccc23)cc1], the “% inhibition (20 µM) biochemical” value worked out at 4.54%.

As for `COC(=O)c1ccc(C(=O)Nc2ccccc2N)cc1` [MWAC-0001884, COC(=O)c1ccc(cc1)C(=O)Nc2ccccc2N], the “% inhibition (20 µM) biochemical” value came to 0%.

Regarding `CCOC(=O)/C=C(\C)N1N=C(c2ccccc2)CC1c1ccc(N(C)C)cc1` (stereo not drawn) [MWAC-0001831, CCOC(=O)\C=C(/C)\N1N=C(CC1c2ccc(cc2)N(C)C)c3ccccc3], the “% inhibition (20 µM) biochemical” value stood at 5.67%.

As for `CCc1cc2c3c(c1)C1(C(=O)N3C(C)(C)C=C2C)C(C#N)=C(N)Oc2[nH]c(=O)[nH]c(=O)c21` (stereo not drawn) [MWAC-0001786, CCc1cc2C(=CC(C)(C)N3C(=O)C4(C(=C(N)OC5=C4C(=O)NC(=O)N5)C#N)c(c1)c23)C], the “% inhibition (20 µM) biochemical” value is given as 4%.

Turning to `COc1ccc(CC(=O)NCc2ccccc2Cl)cc1` [MWAC-0001807, COc1ccc(CC(=O)NCc2ccccc2Cl)cc1], the “% inhibition (20 µM) biochemical” value is reported as 1%.

For the compound `CCOC(=O)c1ccc(NC(=O)CSc2nnc(-c3ccccc3OCC)o2)cc1` [MWAC-0001774, CCOC(=O)c1ccc(NC(=O)CSc2oc(nn2)c3ccccc3OCC)cc1], the “% inhibition (20 µM) biochemical” value was 5.5%.

For the compound `COc1cccc(Nc2ccc3ccccc3c2)c1` [MWAC-0001865, COc1cccc(Nc2ccc3ccccc3c2)c1], the “% inhibition (20 µM) biochemical” value was 0%.

On to `O=C(NNC(=O)C(c1ccccc1)c1ccccc1)Nc1cccc(Cl)c1` [MWAC-0001779, Clc1cccc(NC(=O)NNC(=O)C(c2ccccc2)c3ccccc3)c1], for which the “% inhibition (20 µM) biochemical” value is given as 3%.

For the compound `O=C(CC(SCc1ccco1)c1ccc(Cl)cc1)c1cccs1` (stereo not drawn) [MWAC-0001874, Clc1ccc(cc1)C(CC(=O)c2cccs2)SCc3occc3], the “% inhibition (20 µM) biochemical” value is recorded as 0%.

As for `COc1ccccc1-c1cc(C(F)(F)F)nc(S(=O)(=O)CCCC(=O)Nc2c(F)cc(F)cc2Br)n1` [MWAC-0001726, COc1ccccc1c2cc(nc(n2)S(=O)(=O)CCCC(=O)Nc3c(F)cc(F)cc3Br)C(F)(F)F], the “% inhibition (20 µM) biochemical” value is listed as 43%.

For the compound `CC(=O)Nc1cccc(-c2nc3cc(Cl)ccc3o2)c1` [MWAC-0001758, CC(=O)Nc1cccc(c1)c2oc3ccc(Cl)cc3n2], the “% inhibition (20 µM) biochemical” value was found to be 14%.

In the case of `Nc1c(C(=O)c2ccccc2)sc2nc3c(cc12)CCC3` [MWAC-0001815, Nc1c(sc2nc3CCCc3cc12)C(=O)c4ccccc4], the “% inhibition (20 µM) biochemical” value came to 27%.

For `COc1ccc(OC)c(C(=O)c2oc3ccccc3c2NC(=O)CCl)c1` [MWAC-0001832, COc1ccc(OC)c(c1)C(=O)c2oc3ccccc3c2NC(=O)CCl], the “% inhibition (20 µM) biochemical” value is listed as 85%.

With `CCCCS(=O)(=O)N(O)c1ccc(Cl)cc1` [MWAC-0001856, CCCCS(=O)(=O)N(O)c1ccc(Cl)cc1], the “% inhibition (20 µM) biochemical” value is listed as 4%.

Turning to `C=CCN1C(=O)C(O)(CC(=O)c2ccc(Cl)s2)c2cc(Br)ccc21` (stereo not drawn) [MWAC-0001788, OC1(CC(=O)c2ccc(Cl)s2)C(=O)N(CC=C)c3ccc(Br)cc13], the “% inhibition (20 µM) biochemical” value is 7.53%.

Regarding `CCOc1ccccc1C1Nc2ccccc2NC2=C1C(=O)CC(c1ccc3c(c1)OCO3)C2` (stereo not drawn) [MWAC-0001720, CCOc1ccccc1C2Nc3ccccc3NC4=C2C(=O)CC(C4)c5ccc6OCOc6c5], the “% inhibition (20 µM) biochemical” value is on record as 0%.

Regarding `O=C(Nc1cc([N+](=O)[O-])ccc1F)c1cccc(F)c1` [MWAC-0001808, [O-][N+](=O)c1ccc(F)c(NC(=O)c2cccc(F)c2)c1], the “% inhibition (20 µM) biochemical” value amounted to 1.53%.

As to `Cc1cccc2c1NC(=O)/C2=C\C(=O)c1cccs1` [MWAC-0001756, Cc1cccc2\C(=C\C(=O)c3cccs3)\C(=O)Nc12], the “% inhibition (20 µM) biochemical” value is given as 13%.

As for `Fc1nc(F)c(F)c(SC(=S)N2CCOCC2)c1F` [MWAC-0001725, Fc1nc(F)c(F)c(SC(=S)N2CCOCC2)c1F], the “% inhibition (20 µM) biochemical” value amounted to 3.69%.

With `CCOC(=O)c1sc(NC(=O)c2sccc2C)cc1C` [MWAC-0001852, CCOC(=O)c1sc(NC(=O)c2sccc2C)cc1C], the “% inhibition (20 µM) biochemical” value worked out at 10%.

In the case of `CCOc1ccc(C2NC(=O)c3[nH]nc(-c4cccc(OC)c4)c32)cc1` (stereo not drawn) [MWAC-0001753, CCOc1ccc(cc1)C2NC(=O)c3[nH]nc(c4cccc(OC)c4)c23], the “% inhibition (20 µM) biochemical” value was determined as 18%.

`Cc1ccccc1OCCOc1ccccc1/C=N/n1cnnc1` [MWAC-0001810, Cc1ccccc1OCCOc2ccccc2\C=N\n3cnnc3]: the “% inhibition (20 µM) biochemical” value was found to be 5%.

Turning to `O=C1/C(=C/c2ccc3c(c2)OCO3)SC(=S)N1Cc1cccnc1` [MWAC-0001792, O=C1N(Cc2cccnc2)C(=S)S/C/1=C\c3ccc4OCOc4c3], the “% inhibition (20 µM) biochemical” value is listed as 14%.

As to `O=[N+]([O-])c1cc(C(F)(F)F)ccc1NCCNS(=O)(=O)Cc1ccccc1` [MWAC-0001800, [O-][N+](=O)c1cc(ccc1NCCNS(=O)(=O)Cc2ccccc2)C(F)(F)F], the “% inhibition (20 µM) biochemical” value turned out to be 3.51%.

Turning to `CN(C)c1ccc(/C=N\Nc2cn[nH]c(=O)c2Cl)cc1` [MWAC-0001746, CN(C)c1ccc(\C=N/NC2=C(Cl)C(=O)NN=C2)cc1], the “% inhibition (20 µM) biochemical” value was found to be 15%.

`Cc1ccc(C(NC(=O)CCl)c2cccs2)cc1` (stereo not drawn) [MWAC-0001859, Cc1ccc(cc1)C(NC(=O)CCl)c2cccs2]: the “% inhibition (20 µM) biochemical” value was determined as 60%.

Consider `CN1C(=O)C(=Cc2cc(O)ccc2Br)C(=O)N(C)C1=O` [MWAC-0001799, CN1C(=O)N(C)C(=O)C(=Cc2cc(O)ccc2Br)C1=O], for which the “% inhibition (20 µM) biochemical” value came to 5.42%.

On to `CC(=O)N(/N=C1\Sc2ccccc2C1=O)c1ccccc1C` [MWAC-0001741, CC(=O)N(\N=C\1/Sc2ccccc2C1=O)c3ccccc3C], for which the “% inhibition (20 µM) biochemical” value came out at 36%.

Take `CCCCN1C(=O)C(O)(CC(=O)c2cccc(OC)c2)c2cc(Br)ccc21` (stereo not drawn) [MWAC-0001744, CCCCN1C(=O)C(O)(CC(=O)c2cccc(OC)c2)c3cc(Br)ccc13]: the “% inhibition (20 µM) biochemical” value is recorded as 10%.

On to `Fc1cccc(/N=c2\oc3ccccc3cc2-c2nc3ccccc3[nH]2)c1` [MWAC-0001716, Fc1cccc(c1)\N=C\2/Oc3ccccc3C=C2c4nc5ccccc5[nH]4], for which the “% inhibition (20 µM) biochemical” value is 0%.

In the case of `O=C(CCCN1C(=O)/C(=C\c2ccco2)SC1=S)Nc1cc(Cl)ccc1O` [MWAC-0000351, Oc1ccc(Cl)cc1NC(=O)CCCN2C(=S)S\C(=C\c3occc3)\C2=O], the “% inhibition (20 µM) biochemical” value is reported as 2.86%.

Regarding `Cc1cc(C(=O)CCl)c(C)n1CCc1cccs1` [MWAC-0001825, Cc1cc(C(=O)CCl)c(C)n1CCc2cccs2], the “% inhibition (20 µM) biochemical” value turned out to be 56%.

For `Cc1c(C(=O)N2CCCCC2C)sc2nc(-c3ccc(F)cc3)cn12` (stereo not drawn) [MWAC-0001747, CC1CCCCN1C(=O)c2sc3nc(cn3c2C)c4ccc(F)cc4], the “% inhibition (20 µM) biochemical” value turned out to be 5.44%.

Take `CCOc1ccc(/C=C2\SC(Nc3ccccc3O)=NC2=O)cc1` [MWAC-0001811, CCOc1ccc(\C=C\2/SC(=NC2=O)Nc3ccccc3O)cc1]: the “% inhibition (20 µM) biochemical” value came to 5.42%.

For `Cc1cccc(NC(=O)COc2ccc(Br)cc2/C=N/O)c1` [MWAC-0001791, Cc1cccc(NC(=O)COc2ccc(Br)cc2\C=N\O)c1], the “% inhibition (20 µM) biochemical” value turned out to be 0.745%.

On to `Cc1ccc2nc(N3C(=O)C(O)=C(C(=O)c4ccco4)C3c3ccco3)sc2c1` (stereo not drawn) [MWAC-0001821, Cc1ccc2nc(sc2c1)N3C(C(=C(O)C3=O)C(=O)c4occc4)c5occc5], for which the “% inhibition (20 µM) biochemical” value is recorded as 16%.

Take `O=C(c1cccnc1)N1CCN(c2ccc(Cl)c(Cl)c2)CC1` [MWAC-0001776, Clc1ccc(cc1Cl)N2CCN(CC2)C(=O)c3cccnc3]: the “% inhibition (20 µM) biochemical” value turned out to be 47%.

With `O=C1N(Cc2ccccc2)c2ccccc2C12NNc1ccccc1O2` (stereo not drawn) [MWAC-0001855, O=C1N(Cc2ccccc2)c3ccccc3C14NNc5ccccc5O4], the “% inhibition (20 µM) biochemical” value was determined as 2.76%.

In the case of `Cc1cc(=O)oc2c(C)c(OCc3ccccc3)ccc12` [MWAC-0001732, CC1=CC(=O)Oc2c(C)c(OCc3ccccc3)ccc12], the “% inhibition (20 µM) biochemical” value is listed as 7%.

For `CCN1C(=O)C(O)(CC(=O)c2ccco2)c2cc(Br)ccc21` (stereo not drawn) [MWAC-0001784, CCN1C(=O)C(O)(CC(=O)c2occc2)c3cc(Br)ccc13], the “% inhibition (20 µM) biochemical” value is reported as 3%.

For the compound `CC(C)(C)NC(=O)N[C@H](C(=O)N1C[C@H]2[C@@H]([C@H]1C(=O)NC(CC1CCC1)C(=O)C(N)=O)C2(C)C)C(C)(C)C` (stereo partly drawn) [Boceprevir, reference compound], the “% inhibition (20 µM) biochemical” value came to 73.0971%.

As to `Cc1ccc(/C=C/C(=O)Nc2ccccc2Br)o1` [MWAC-0001759, Cc1oc(\C=C\C(=O)Nc2ccccc2Br)cc1], the “% inhibition (20 µM) biochemical” value came out at 15%.

Turning to `O=C(COc1ccccc1)Nc1scc(-c2ccccc2)c1C(=O)NCc1ccco1` [MWAC-0001777, O=C(COc1ccccc1)Nc2scc(c3ccccc3)c2C(=O)NCc4occc4], the “% inhibition (20 µM) biochemical” value was found to be 3.67%.

For the compound `O=C(CCC(=O)Nc1ccc2c(c1)OCCO2)Nc1ccc(OCc2ccccc2)cc1` [MWAC-0001840, O=C(CCC(=O)Nc1ccc2OCCOc2c1)Nc3ccc(OCc4ccccc4)cc3], the “% inhibition (20 µM) biochemical” value was 3%.

Consider `CCOc1ccc2nc(SC3CC(=O)N(c4ccccc4C(F)(F)F)C3=O)sc2c1` (stereo not drawn) [MWAC-0001714, CCOc1ccc2nc(SC3CC(=O)N(C3=O)c4ccccc4C(F)(F)F)sc2c1], for which the “% inhibition (20 µM) biochemical” value came out at 6%.

Take `COc1cc(C#N)ccc1OCc1ccc(Cl)cc1` [MWAC-0001772, COc1cc(ccc1OCc2ccc(Cl)cc2)C#N]: the “% inhibition (20 µM) biochemical” value is reported as 0.301%.

On to `O=C(Nc1ccccc1O)c1ccc(Cl)c([N+](=O)[O-])c1` [MWAC-0001814, Oc1ccccc1NC(=O)c2ccc(Cl)c(c2)[N+](=O)[O-]], for which the “% inhibition (20 µM) biochemical” value was 2.59%.
